Experimental data as given in ChEMBL document CHEMBL1201862, “PubChem BioAssay data set” (2004).
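Exposure lasted 48 hours, with cells grown in 96-well plates and compounds tested at five concentrations. GI50 = concentration required for 50% inhibition of growth.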 The source made the active and inactive calls. No stated cut-off is given here; in the data, active = GI50 up to about 1.1 µM and inactive = higher.

Key:
Experiment in all cases: DTP human tumour cell line panel, 48 h
M14 = system: M14
SK-MEL-5 = system: SK-MEL-5
A498 = system: A498
NCI-H23 = system: NCI-H23
DMS-273 = system: DMS-273
UACC-62 = system: UACC-62
U-251 = system: U-251
A549 = system: A549
SF-539 = system: SF-539
RPMI-8226 = system: RPMI-8226
SK-OV-3 = system: SK-OV-3
OVCAR-5 = system: OVCAR-5
RXF 393 = system: RXF 393
SF-268 = system: SF-268
UACC-257 = system: UACC-257
NCI-H522 = system: NCI-H522
ACHN = system: ACHN
Hs-578T = system: Hs-578T
MDA-MB-231 = system: MDA-MB-231
HCC 2998 = system: HCC 2998

Measured: GI50

O=[N+]([O-])[C@@H]1C2C=CC(C2)[C@H]1Cl (stereo partly drawn)
inactive: M14 > 100 µM | SK-MEL-5 > 100 µM | A498 > 100 µM | NCI-H23 > 100 µM | DMS-273 > 100 µM | UACC-62 > 100 µM | U-251 > 100 µM | A549 > 100 µM | SF-539 > 100 µM | RPMI-8226 > 100 µM | SK-OV-3 > 100 µM | OVCAR-5 > 100 µM | RXF 393 > 100 µM | SF-268 > 100 µM | UACC-257 > 100 µM | NCI-H522 > 100 µM | ACHN > 100 µM

c1ccc2c(c1)OCCOCCOc1ccccc1OCCO2
inactive: M14 44.9 µM | SK-MEL-5 68.2 µM | A498 > 100 µM | NCI-H23 > 100 µM | DMS-273 41.2 µM | UACC-62 51.2 µM | U-251 34.4 µM | A549 71 µM | SF-539 > 100 µM | RPMI-8226 22.3 µM | SK-OV-3 > 100 µM | OVCAR-5 77.3 µM | RXF 393 60.1 µM | SF-268 > 100 µM | UACC-257 84.7 µM | NCI-H522 32.7 µM | ACHN 51.9 µM

O=C1C(Cl)=C(N2CCOCC2)C(=O)c2c(O)ccc(O)c21
inactive: A498 1.63 µM | HCC 2998 1.67 µM | A549 1.98 µM | RPMI-8226 1.84 µM | SK-OV-3 2.81 µM | SF-268 1.36 µM
active: Hs-578T 0.859 µM | M14 0.182 µM | SK-MEL-5 0.316 µM | NCI-H23 0.255 µM | MDA-MB-231 0.216 µM | UACC-62 0.729 µM | U-251 0.925 µM | SF-539 0.486 µM | OVCAR-5 0.497 µM | RXF 393 0.222 µM | UACC-257 0.33 µM | NCI-H522 0.286 µM | ACHN 0.263 µM

COc1c(C)c(C/C=C(\C)CCCCO[Si](c2ccccc2)(c2ccccc2)C(C)(C)C)c(OC)c(OC)c1OC
inactive: Hs-578T > 100 µM | M14 > 46.5 µM | SK-MEL-5 30.1 µM | A498 > 100 µM | NCI-H23 19.6 µM | MDA-MB-231 > 100 µM | HCC 2998 41.8 µM | UACC-62 > 46.5 µM | U-251 > 46.5 µM | A549 21.4 µM | SF-539 > 46.5 µM | RPMI-8226 39.9 µM | SK-OV-3 > 46.5 µM | OVCAR-5 > 46.5 µM | RXF 393 > 100 µM | SF-268 65.5 µM | UACC-257 > 46.5 µM | NCI-H522 50.5 µM | ACHN 16.2 µM

CCc1cc(C)cc2[n+]1CC=C2C.[O-][Cl+3]([O-])([O-])[O-]
inactive: M14 > 100 µM | SK-MEL-5 > 100 µM | NCI-H23 66.1 µM | DMS-273 92 µM | HCC 2998 > 100 µM | U-251 > 100 µM | A549 > 100 µM | SF-539 > 100 µM | OVCAR-5 > 100 µM | RXF 393 27.3 µM | SF-268 > 100 µM | UACC-257 27.3 µM | NCI-H522 49.7 µM | ACHN > 100 µM

C/C(=N\Nc1nc2cc(C(F)(F)F)ccc2s1)c1ccccn1
active: M14 0.282 µM | SK-MEL-5 0.338 µM | NCI-H23 0.452 µM | MDA-MB-231 0.0555 µM | UACC-62 0.303 µM | U-251 0.448 µM | A549 0.593 µM | RPMI-8226 0.402 µM | SK-OV-3 0.245 µM | SF-268 0.333 µM | UACC-257 0.452 µM | NCI-H522 0.111 µM | ACHN 0.113 µM
inactive: Hs-578T 1.91 µM | A498 1.52 µM | HCC 2998 2.6 µM | SF-539 1.42 µM | OVCAR-5 2.47 µM | RXF 393 1.36 µM

O=C(O)c1c(-c2cccc3ccccc23)sc(-c2cccc3ccccc23)c1C(=O)O
inactive: M14 > 100 µM | SK-MEL-5 > 100 µM | NCI-H23 > 100 µM | DMS-273 > 100 µM | HCC 2998 > 100 µM | UACC-62 46.1 µM | U-251 > 100 µM | A549 > 100 µM | SF-539 > 100 µM | RPMI-8226 58.1 µM | SK-OV-3 > 100 µM | OVCAR-5 > 100 µM | RXF 393 > 100 µM | SF-268 > 100 µM | UACC-257 > 100 µM | NCI-H522 74.8 µM | ACHN > 100 µM

COc1c(O)c2c3c(cc(C)cc3c1C(C)C)OC2
inactive: M14 > 100 µM | SK-MEL-5 > 100 µM | NCI-H23 > 100 µM | DMS-273 > 100 µM | HCC 2998 > 100 µM | UACC-62 > 100 µM | U-251 > 100 µM | A549 > 100 µM | SF-539 > 100 µM | RPMI-8226 > 100 µM | SK-OV-3 > 100 µM | OVCAR-5 > 100 µM | RXF 393 > 100 µM | SF-268 > 100 µM | UACC-257 > 100 µM | NCI-H522 > 100 µM | ACHN > 100 µM

O=C(CSc1nnc[nH]1)C[P+](c1ccccc1)(c1ccccc1)c1ccccc1
inactive: M14 > 100 µM | SK-MEL-5 > 100 µM | NCI-H23 > 100 µM | DMS-273 > 100 µM | HCC 2998 > 100 µM | UACC-62 99.1 µM | A549 > 100 µM | SF-539 > 100 µM | RPMI-8226 > 10 µM | SK-OV-3 > 100 µM | OVCAR-5 > 100 µM | RXF 393 61.4 µM | SF-268 > 100 µM | UACC-257 > 100 µM | NCI-H522 4.25 µM | ACHN > 100 µM

O=C1Nc2ccc([N+](=O)[O-])cc2/C1=N/NC(=S)Nc1ccc([N+](=O)[O-])cc1
inactive: Hs-578T 51.9 µM | M14 19.6 µM | SK-MEL-5 15.8 µM | A498 18.2 µM | NCI-H23 19.9 µM | MDA-MB-231 24.7 µM | HCC 2998 20.9 µM | UACC-62 21.1 µM | U-251 23.7 µM | A549 21.1 µM | SF-539 29.4 µM | RPMI-8226 34.9 µM | SK-OV-3 22.4 µM | OVCAR-5 28.7 µM | RXF 393 17.5 µM | SF-268 32.6 µM | UACC-257 20.8 µM | NCI-H522 30.9 µM | ACHN 24.8 µM

CC1(C)CCC(C)(C)c2cc(NC(=O)c3ccc(C(=O)O)cc3)ccc21 [TAMIBAROTENE]
inactive: Hs-578T 24.5 µM | M14 26.5 µM | SK-MEL-5 29.5 µM | A498 23.7 µM | NCI-H23 23.2 µM | MDA-MB-231 > 49.1 µM | HCC 2998 27.2 µM | UACC-62 16.5 µM | U-251 24.7 µM | A549 27 µM | SF-539 17.7 µM | RPMI-8226 20.4 µM | SK-OV-3 28 µM | OVCAR-5 > 51.6 µM | RXF 393 26.9 µM | SF-268 34.8 µM | UACC-257 29.4 µM | NCI-H522 36.6 µM | ACHN 36.5 µM
